# From patent US11618916B2, “Probe for measuring activity of Caspase-1 and composition for diagnosis of inflammatory diseases containing same” (KOREA INSTITUTE OF SCIENCE AND TECHNOLOGY, priority 2018, dated 2023)
# Experiments:
# [1] = tested on: inflammation-induced animal model; assay: Detection of inflammation in LPS/ATP inflammation-induced animal model, IVIS Lumina imaging; type: in vivo, C57BL/6 mice
# Procedure: The caspase-1 enzyme is activated due to various factors. Among them, the most representative method is to activate inflammasome by administering LPS or ATP which induces early inflammation response. In Test Example 5, it was confirmed using the probe for measuring the activity of caspase-1 of Example 4 that the administration of LPS and ATP induced the activation of inflammasome, which is an early inflammation response. In this test example, an experiment was carried out using an inflammation-induced animal model in order to investigate whether the probe for measuring the activity of caspase-1 of Example 4 works well in vivo, too. In order to establish the inflammation-induced animal model, 8-week-old C57BL/6 mice acquired from Nara Bio were accustomed for a week and then reared in animal plastic cages, with 4 mice per cage. The cage was controlled with artificial lighting for 12 hours from 7 am to […], indoor temperature of 18-23° C. and 40-60% humidity. Clean water and feed were given freely. Then, physiological saline (control group), 20 μg of LPS and 50 mM ATP (Ms1 test group) or 20 μg of LPS and 100 mM ATP (Ms2 test group) was injected into the left sole of the experimental animal. After intravenously injecting the probe for measuring the activity of caspase-1 prepared in Example 4 with 3-day intervals, the respective groups were imaged with IVIS Lumina with 30-minute intervals.
# [2] = tested on: Alzheimer's animal model; assay: Imaging of Alzheimer's animal model; type: in vivo, B6SJL-Tg (APPSwFILon, PSEN1*M146L*L286V)6799Vas/Mmjax) mice
# Procedure: In order to establish an Alzheimer's animal model, 3- to 6-month-old B6SJL-Tg (APPSwFILon, PSEN1*M146L*L286V)6799Vas/Mmjax) mice acquired from the […] (Bar Harbor, USA) were accustomed for a week and then reared in animal plastic cages, with 4 mice per cage. The cage was controlled with artificial lighting for 12 hours from 7 am to 7 pm, indoor temperature of 18-23° C. and 40-60% humidity. Clean water and feed were given freely. An Alzheimer's animal model was induced through genetic APP mutation. Amyloid beta, which is the cause of dementia, is accumulated from 3 months later and form aggregates 4 months later. […] A control group (pre) was not subjected to the genetic mutation.
# [3] = target: T1, caspase-1 enzyme (Homo sapiens, UniProt P29466); assay: Fluorescence restoration depending on caspase-1 enzyme concentration; type: biochemical; conditions: FIG. 3B
# T1 sequence (P29466 120-297 limits assumed): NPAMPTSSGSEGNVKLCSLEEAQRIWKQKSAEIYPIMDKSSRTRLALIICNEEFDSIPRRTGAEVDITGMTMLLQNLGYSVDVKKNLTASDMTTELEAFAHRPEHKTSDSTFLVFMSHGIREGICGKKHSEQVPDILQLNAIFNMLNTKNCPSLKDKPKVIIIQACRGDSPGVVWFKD
# T1 sequence (P29466 317-404 limits assumed): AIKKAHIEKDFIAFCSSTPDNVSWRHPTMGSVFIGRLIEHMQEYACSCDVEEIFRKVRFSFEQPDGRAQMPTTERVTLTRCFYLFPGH
# Procedure: In order to investigate the fluorescence of the probe for measuring the activity of caspase-1 prepared in Example 4 depending on the concentration of the caspase-1 enzyme, the change in fluorescence with time was analyzed and evaluated using the caspase-1 enzyme at various concentrations (0, 2.5, 5, 7.5 and 10 units).
# First, the caspase enzyme of various concentrations (0, 2.5, 5, 7.5 and 10 units) was dissolved in a reaction buffer (0.5 mM HEPES, pH 7.2, 50 mM calcium chloride, 0.1% CHAPS, 10 mM EDTA, 5% glycerol, 10 mM DTT) and incubated at 37° C. for 1 hour. After transferring 200 μL of the caspase enzyme activated through the procedure to each well of a 96-well plate and then incubating with the probe for measuring the activity of caspase-1 of Example 4 at 37° C., the restoration of fluorescence with time was observed by fluorescence spectroscopy.
# The fluorescence image for each reaction solution is shown at the bottom of FIG. 3B.
# [4] = tested on: THP-1 monocytes; assay: Fluorescence restoration in LPS/ATP-treated cells, fluorescence microscope; type: cell-based; conditions: THP-1 treated with 1.5 μg/mL LPS and 5 mM ATP, probe 3.5 hours later; vs control without LPS/ATP; FIG. 4B
# Procedure: THP-1 monocytes were placed on a 96-well plate and treated with 1.5 μg/mL LPS and 5 mM ATP one day later. 3.5 hours later, the probe for measuring the activity of caspase-1 prepared in Example 4 was administered. Then, after culturing for 24 hours, fluorescence restoration by the probe for measuring the activity of caspase-1 in the cells was analyzed with a fluorescence microscope.
# Control was treated with neither LPS nor ATP.
# LPS and ATP are known to activate caspase-1. LPS is a primary signal occurring in the early stage of inflammation and ATP is a secondary signal. […] That is to say, it was confirmed that the probe for measuring the activity of caspase-1 of the present disclosure can accurately measure caspase-1 activated by inflammation response.
# [5] = tested on: colitis animal model (DSS); assay: Imaging of DSS colitis animal model; type: in vivo, C57BL/6 mice; conditions: DSS vs normal
# Procedure: In order to establish a colitis animal model, 8-week-old C57BL/6 mice acquired from Nara Bio were accustomed for a week and then reared in animal plastic cages, with 4 mice per cage. The cage was controlled with artificial lighting for 12 hours from 7 am to 7 pm, indoor temperature of 18-23° C. and 40-60% humidity. Clean water and feed were given freely. Colitis was induced by providing the experimental animal with drinking water containing 3% dextran sodium sulfate (DSS). […] Because the body weight of the colitis animal model decreases proportionally to the progress of the disease, the probe for measuring the activity of caspase-1 of Example 4 was administered on day 6, when the body weight was decreased to 80%, for imaging. As a control group (normal), a non-colitis-induced group was prepared by providing normal drinking water to the experimental animal.
# [6] = target: T1, caspase-1 enzyme; assay: Specific activity of probe: fluorescence restoration with caspase enzymes (caspase-1, 3, 8, 11) or caspase-1 inhibitor; type: biochemical; conditions: caspase-1, 3, 8, 11 at 2 units or caspase-1 inhibitor; 37° C.; FIG. 3A
# Procedure: In order to investigate whether the probe for measuring the activity of caspase-1 prepared in Example 4 is specifically cleaved by the caspase-1 enzyme and restores fluorescence, the change in fluorescence with time was analyzed and evaluated using various caspase enzymes (caspase-1, 3, 8 and 11) and a caspase-1 inhibitor.
# First, a caspase enzyme or a caspase-1 inhibitor was dissolved in a reaction buffer (0.5 mM HEPES, pH 7.2, 50 mM calcium chloride, 0.1% CHAPS, 10 mM EDTA, 5% glycerol, 10 mM DTT) and then incubated at 37° C. for 1 hour. All the enzymes were used at the same concentration of 2 units. After transferring 200 μL of the caspase enzyme activated through the procedure to each well of a 96-well plate and then incubating with the probe for measuring the activity of caspase-1 of Example 4 at 37° C., the restoration of fluorescence with time was observed by fluorescence spectroscopy.
# The photographs at the bottom of FIG. 3A show the fluorescence images of the respective reaction solutions. (+)Cas-1 was treated with the caspase-1 enzyme, (+)cas-1 inhibitor was treated with the caspase-1 inhibitor, (+)cas-3 was treated with the caspase-3 enzyme, (+)cas-8 was treated with the caspase-8 enzyme, and (+)cas-11 was treated with the caspase-11 enzyme.
# [7] = tested on: T2, probe for measuring the activity of caspase-1 prepared in Example 4
# T2 sequence: GWEHDGK
compound,measurement,setting,value
CCN(CC)c1ccc2nc3ccc(/N=N/c4ccc(N(C)CCCC(=O)NCCCCC(NC(=O)CNC(=O)[C@H](CC(=O)O)NC(=O)[C@H](Cc5c[nH]cn5)NC(=O)[C@H](CCC(=O)O)NC(=O)[C@H](Cc5c[nH]c6ccccc56)NC(=O)CNC(=O)CCCCCCCN5/C(=C/C=C/C=C/C6=[N+](CC)c7ccc8c(S(=O)(=O)O)cc(S(=O)(=O)O)cc8c7C6(C)C)C(C)(C)c6c5ccc5c(S(=O)(=O)O)cc(S(=O)(=O)O)cc65)C(=O)O)cc4)cc3[n+](-c3ccccc3)c2c1 (stereo partly shown) [Example 4],in-vivo fluorescence depending on the concentration of inflammation-inducing substances (images),"[1]; LPS/ATP into left sole (Ms1: 20 μg LPS + 50 mM ATP; Ms2: 20 μg LPS + 100 mM ATP), probe intravenously, FIG. 5A",the fluorescence was restored better
same,quantified fluorescence from the top of the left foot and the left calf,"[1]; control, Ms1 and Ms2 test groups, FIG. 5B",exhibits stronger fluorescence
same,"fluorescence from the groin, ham and lymph node","[1]; control, Ms1 and Ms2 test groups, FIG. 5C",The strongest fluorescence was observed in the ham lymph node closest to the sole
same,fluorescence images 90 minutes after intravenous injection,"[2]; Alzheimer's animal models of 3-6 months vs control (pre), FIG. 7A",the fluorescence could be observed in the Alzheimer's animal model from 3 months
same,co-localisation of probe fluorescence with caspase-1 antibody staining in brain tissue,"[2]; model of 3 months (TG), 3 hours after probe, FIG. 7E",corresponds exactly to the region immunologically stained with the caspase-1 antibody
same,fluorescence from the brain,"[2]; models of 3, 4, 5 and 6 months, FIG. 7B",fluorescence was observed in the brain of the Alzheimer's animal model from 4 months
same,fluorescence in quadrisected brain (fluorescence microscope),"[2]; models of 3-6 months, FIG. 7D",the fluorescence was observed clearly in the hippocampal region of the brain
same,quantified fluorescence intensity from the brain,"[2]; vs control group (WT), FIG. 7C",significant fluorescence intensity began to be observed starting from the Alzheimer's animal model of 4 months
same,concentration limit of the caspase-1 enzyme that could be measured,[3],7.5 units
same,change in fluorescence intensity with caspase-1 enzyme concentration,"[3]; caspase-1 at 0, 2.5, 5, 7.5 and 10 units, 37° C.",increase in fluorescence intensity as the concentration of the caspase-1 enzyme increases
same,fluorescence restoration in cells,[4],the fluorescence of Cy5.5 was restored effectively as compared to the control group
same,fluorescence from the extracted large intestine,[5]; FIG. 6D,Strong red fluorescence was observed in the large intestine extracted from the colitis animal model
same,"Cy5.5 fluorescence in isolated colon cells (fluorescence microscope, NLRP3 inflammasome co-staining)",[5]; FIG. 6F,only in the colon cells isolated from the colitis animal model
same,whole-body fluorescence images after intravenous injection,"[5]; day 6, 30-minute intervals, FIG. 6C",red fluorescence was observed clearly in the colitis animal model
same,"restoration of fluorescence with time (photoluminescence), specificity among caspase enzymes",[6],restores fluorescence specifically only in the presence of caspase-1 at all times
caspase-1 enzyme,restoration of fluorescence with time by photoluminescence (PL) after cleavage of the probe,[7],restores fluorescence specifically only in the presence of caspase-1 at all times
caspase-3 enzyme,restoration of fluorescence with time by photoluminescence (PL) after cleavage of the probe,[7],restores fluorescence specifically only in the presence of caspase-1 at all times
caspase-8 enzyme,restoration of fluorescence with time by photoluminescence (PL) after cleavage of the probe,[7],restores fluorescence specifically only in the presence of caspase-1 at all times
caspase-11 enzyme,restoration of fluorescence with time by photoluminescence (PL) after cleavage of the probe,[7],restores fluorescence specifically only in the presence of caspase-1 at all times
